Results taken from paper PMC12491518, “Fabrication of cytotoxic mirror image nanopores” (Nature Communications, 2025).
Where a SMILES comes first, the peptide text is derived from it. [ ]: non-standard residue; d: D form.

Assays:
[1] = Ion selectivity measurement under asymmetric KCl (reverse potential, Goldman-Hodgkin-Katz); type: biochemical; settings: 0.15 M KCl cis / 1 M KCl trans
Description: High-resolution electrical recordings for the single-channel characterization were conducted in planar lipid bilayers made up of 1,2-diphytanoyl-sn-glycero-3-phosphocholine (DPhPC, Avanti Polar Lipids)[23],[27],[51]. The lipid bilayer is formed across a polytetrafluoroethylene (Teflon) aperture of ~100 µm in diameter. Teflon is placed between the two sides of the Delrin bilayer chamber, partitioning it into cis and trans compartments (600 µL each). For constructing a solvent-free lipid bilayer, the aperture is made lipophilic by pre-painting both sides with hexadecane in n-pentane (1 μL, 5 mg mL^−1)[51]. After ~10 min, the chambers were filled with buffered electrolytes (1 M KCl, 10 mM HEPES, pH 7.4), and DPhPC in n-pentane (1 μL, 5 mg mL^−1) was added. After ~15 min incubation, the lipid bilayer is formed by raising and lowering the electrolyte solution, bringing the two lipid monolayers together at the aperture. […] Ion selectivity was assessed under asymmetric salt conditions with a KCl concentration gradient across the planar lipid bilayer (0.15 M cis/1 M trans) (SI text)[27]. The ion current was acquired and amplified using an Axopatch 200B amplifier, digitized with Digidata 1550B digitizer, and recorded using the pClamp 11 acquisition software (Molecular Devices, CA). […]

[2] = Single-channel electrical recordings in planar lipid bilayers; type: biochemical; settings: for mean unitary conductance (G): 10 mM HEPES, pH 7.4, DpPorA at +50 mV, n = 83 insertions, DpPorA DE n = 61 insertions; for experimental conductance Gexp: Supplementary Table 1
Description: High-resolution electrical recordings for the single-channel characterization were conducted in planar lipid bilayers made up of 1,2-diphytanoyl-sn-glycero-3-phosphocholine (DPhPC, Avanti Polar Lipids)[23],[27],[51]. The lipid bilayer is formed across a polytetrafluoroethylene (Teflon) aperture of ~100 µm in diameter. Teflon is placed between the two sides of the Delrin bilayer chamber, partitioning it into cis and trans compartments (600 µL each). For constructing a solvent-free lipid bilayer, the aperture is made lipophilic by pre-painting both sides with hexadecane in n-pentane (1 μL, 5 mg mL^−1)[51]. After ~10 min, the chambers were filled with buffered electrolytes (1 M KCl, 10 mM HEPES, pH 7.4), and DPhPC in n-pentane (1 μL, 5 mg mL^−1) was added. After ~15 min incubation, the lipid bilayer is formed by raising and lowering the electrolyte solution, bringing the two lipid monolayers together at the aperture. The cis compartment was connected to the ground electrode, while the trans compartment was connected to the working live electrode. Subsequently, DpPorA or DpPorA DE peptides solubilized in 0.1% DDM (1 µL, 100 µg mL^−1) were consistently introduced into the cis compartment of the bilayer. The peptide pore insertion was facilitated by mixing the bilayer chamber and applying a high voltage of +200 mV. The single-channel electrical properties of the peptide pores and analyte-induced pore blockages were examined in 1 M KCl, 10 mM HEPES, pH 7.4. Ion selectivity was assessed under asymmetric salt conditions with a KCl concentration gradient across the planar lipid bilayer (0.15 M cis/1 M trans) (SI text)[27]. The ion current was acquired and amplified using an Axopatch 200B amplifier, digitized with Digidata 1550B digitizer, and recorded using the pClamp 11 acquisition software (Molecular Devices, CA). The current signals were filtered with a 2 kHz low-pass filter frequency and 10 kHz sampling frequency, or with 10 kHz low-pass filter frequency and 50 kHz sampling frequency, in line with the requirement.

Row | Compound | reverse potential (Vm) [1] | mean unitary conductance (G) ([2]; 1 M KCl) | experimental conductance Gexp [2] | unitary conductance (G) of proteinase K treated peptides ([2]; 1 M KCl, after proteinase K treatment, n = 25) | pores with slightly higher current at negative than positive voltages ([2]; 1 M KCl, current rectification of n = 30 single channels)
1 | CC[C@@H](C)[C@@H](NC(=O)[C@H](N)CCSC)C(=O)N[C@H](CC(=O)O)C(=O)N[C@H](CCC(N)=O)C(=O)N[C@@H](C(=O)N[C@@H](C(=O)N[C@H](CCC(=O)O)C(=O)N[C@@H](C(=O)N[C@H](Cc1ccccc1)C(=O)NCC(=O)N[C@H](CCC(N)=O)C(=O)N[C@H](CC(C)C)C(=O)NCC(=O)N[C@@H](C(=O)N[C@H](Cc1ccccc1)C(=O)N[C@H](CC(C)C)C(=O)NCC(=O)NCC(=O)N[C@H](Cc1ccccc1)C(=O)NCC(=O)N[C@H](CC(N)=O)C(=O)N[C@@H](C(=O)N[C@H](Cc1ccccc1)C(=O)N[C@H](CCCCN)C(=O)NCC(=O)N[C@H](CC(C)C)C(=O)N[C@H](CCCCN)C(=O)N[C@H](C)C(=O)N[C@@H](C(=O)N[C@@H](C(=O)N[C@H](C)C(=O)N[C@@H](C(=O)N[C@@H](C(=O)N[C@@H](C(=O)N[C@H](CCCCN)C(=O)N[C@H](Cc1c[nH]c2ccccc12)C(=O)N[C@@H](C(=O)N[C@H](C)C(=O)N[C@H](C)C(=O)N[C@H](CCCCN)C(=O)O)[C@H](C)O)C(C)C)[C@H](C)CC)[C@H](C)O)[C@H](C)CC)C(C)C)[C@H](C)CC)[C@H](C)O)[C@H](C)CC)[C@H](C)O)[C@H](C)CC [DpPorA DE] (H-[dM][dI][dD][dQ][dI][dT][dE][dI][dF]G[dQ][dL]G[dT][dF][dL]GG[dF]G[dN][dI][dF][dK]G[dL][dK][dA][dV][dI][dA][dT][dI][dV][dK][dW][dT][dA][dA][dK]-OH; N-terminus and C-terminus assumed) | +40 mV | 3.80 ± 0.2 nS | 3.8 ± 0.2 nS |  | 
2 | CC[C@@H](C)[C@@H](NC(=O)[C@H](N)CCSC)C(=O)N[C@H](CC(=O)O)C(=O)N[C@H](CCC(N)=O)C(=O)N[C@@H](C(=O)N[C@@H](C(=O)N[C@H](CCC(=O)O)C(=O)N[C@@H](C(=O)N[C@H](Cc1ccccc1)C(=O)NCC(=O)N[C@H](CCC(N)=O)C(=O)N[C@H](CC(C)C)C(=O)NCC(=O)N[C@@H](C(=O)N[C@H](Cc1ccccc1)C(=O)N[C@H](CC(C)C)C(=O)NCC(=O)NCC(=O)N[C@H](Cc1ccccc1)C(=O)NCC(=O)N[C@H](CC(N)=O)C(=O)N[C@@H](C(=O)N[C@H](Cc1ccccc1)C(=O)N[C@H](CCCCN)C(=O)NCC(=O)N[C@H](CC(C)C)C(=O)N[C@H](CCCCN)C(=O)N[C@H](CC(=O)O)C(=O)N[C@@H](C(=O)N[C@@H](C(=O)N[C@H](CCC(=O)O)C(=O)N[C@@H](C(=O)N[C@@H](C(=O)N[C@@H](C(=O)N[C@H](CCCCN)C(=O)N[C@H](Cc1c[nH]c2ccccc12)C(=O)N[C@@H](C(=O)N[C@H](C)C(=O)N[C@H](C)C(=O)N[C@H](CCCCN)C(=O)O)[C@H](C)O)C(C)C)[C@H](C)CC)[C@H](C)O)[C@H](C)CC)C(C)C)[C@H](C)CC)[C@H](C)O)[C@H](C)CC)[C@H](C)O)[C@H](C)CC [DpPorA] (H-[dM][dI][dD][dQ][dI][dT][dE][dI][dF]G[dQ][dL]G[dT][dF][dL]GG[dF]G[dN][dI][dF][dK]G[dL][dK][dD][dV][dI][dE][dT][dI][dV][dK][dW][dT][dA][dA][dK]-OH; N-terminus and C-terminus assumed) | +21 mV | 2.80 ± 0.2 nS | 2.8 ± 0.2 nS | 2.8 ± 0.2 nS | 90%
